# Legend:
# [1] = in vivo; cited from earlier work
# [2] = Superoxide free radical-scavenging activity by NBT (nitro blue tetrazolium) method
# Procedure: Superoxide Free Radical-Scavenging Activity. The superoxide free radical-scavenging activity was determined by the NBT (nitro blue tetrazolium) method. The reaction mixture contained EDTA (6.6 mM), NaCN (3 μg), riboflavin (2 μM), NBT (50 μM), various concentrations of the test drug in ethanol and a phosphate buffer (58 mM, pH 7.8) in a final volume of 3 ml. Optical density was measured at 560 nm. The test tubes were uniformly illuminated with an incandescent lamp for 15 min, after which the optical density was measured again at 560 nm. The percentage inhibition and superoxide radical generation was measured by comparing the absorbance values of the control and those of the test compounds.
# (§1) The new phytochemical compositions of this invention are found to show antioxidant activity (Table 1; antioxidant activity is measured by two different mechanisms (a) Nitro blue tetrazolium (NBT) (b) DPPH free radical scavenging methods and are expressed in % of inhibition at 500 μg concentrations; higher the % inhibitory values, higher is the activity).
# [3] = DPPH free radical scavenging activity
# Procedure: DPPH Free Radical Scavenging Activity. DPPH (1,1-diphenyl-2-picryl-hydrazyl) radical scavenging activity was measured based on the reduction of methanolic solution of the colored DPPH. Free radical scavenging ability of the test drug in ethanol added to the methanolic solution of DPPH is […] to the difference in initial and final absorption of DPPH solution at 516 nm. The reaction mixture contained 1×10^−4 mM methanolic solution of DPPH and various concentrations of test drugs. The percentage inhibition was determined by comparing the absorbance values of test and control tubes.
# as §1
# 5-Lipoxygenase = 5-Lipoxygenase inhibitory activity, colorimetric method (ferric xylenol orange); format: biochemical
# Procedure: 5-Lipoxygenase Activity: The new phytochemical compositions were screened for their 5-Lipoxygenase inhibitory potential using colorimetric method. The assay mixture contained 50 mM phosphate buffer pH 6.3, 5-Lipoxygenase, various concentrations of test substances in dimethyl sulphoxide and linoleic acid in a total volume of 0.5 mL, after 5 min incubation of above reaction mixture, 0.5 mL ferric xylenol orange reagent was added and OD was measured after two minutes at 585 nm using spectrophotometer. Controls were run along with test in a similar manner except using vehicle instead of test substance solution. Percent inhibition was calculated by comparing absorbance of test solution with that of control. The new phytochemical compositions of this invention are found to show 5-lipoxygenase activity (Table 1; 5-lipoxygenase activity is expressed in % of inhibition at 100 μg concentrations; higher the % inhibitory values, higher is the activity).
# [4] = similar active dose; animal study; cited from earlier work
Molecule,LD50 [1],% inhibition of NBT free radical scavenging activity at 500 μg concentrations [2],% inhibition of DPPH free radical scavenging activity at 500 μg concentrations [3],% inhibition of 5-LOX activity at 100 μg concentrations (5-Lipoxygenase),ulcerogan index [4]
"N[C@@H](Cc1c[nH]c2ccc(O)cc12)C(=O)O [Composition 5-HTP, 5-Hydroxytryptophan]",> 2500 mg/kg,–,–,–,–
"Cl.N[C@H]1C(O)O[C@H](CO)[C@@H](O)[C@@H]1O (some centres unmarked) [Glucosamine HCl, glucosamine hydrochloride]",–,5.6%,2.8%,0%,–
CCCCC1C(=O)N(c2ccccc2)N(c2ccccc2)C1=O [phenylbutazone],–,–,–,–,1.7
"Calcium, potassium salt of (−)-HCA [HCA (70%)]",–,25.5%,0%,0.2%,–

# Reference: patent US20050282772A1, “New dietary supplement composition for obesity and inflammation” (priority 2004, published 2005)
